Test results published in publication PMC4066673 (Biochemistry, 2012).

Columns and labels:
hTHEM4 [1] = target: T1, hTHEM4 (Homo sapiens, UniProt Q5T1C6); assay: product inhibition of thioesterase activity; assay type: biochemical
hTHEM4 [2] = target: T1, hTHEM4; assay: substrate hydrolysed in the competitive inhibition assay; assay type: biochemical

T1 sequence (Q5T1C6 37-240): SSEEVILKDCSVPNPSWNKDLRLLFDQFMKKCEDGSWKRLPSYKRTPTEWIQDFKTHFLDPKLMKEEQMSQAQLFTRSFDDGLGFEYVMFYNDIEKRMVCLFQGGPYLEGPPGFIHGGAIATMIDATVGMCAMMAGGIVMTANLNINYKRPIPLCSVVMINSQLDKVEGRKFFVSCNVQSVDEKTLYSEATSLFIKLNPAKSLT

Row | Structure (SMILES) | Ki (hTHEM4 [1]) | substrate hydrolysed in the competitive inhibition assay (hTHEM4 [2])
1 | CC(C)(COP(=O)(O)OP(=O)(O)OC[C@H]1O[C@@H](n2cnc3c(N)ncnc32)[C@H](O)[C@@H]1OP(=O)(O)O)[C@@H](O)C(=O)NCCC(=O)NCCS [CoA] | 81 ± 1 µM | –
2 | CCCCCCCCCC(=O)SCCNC(=O)CCNC(=O)[C@H](O)C(C)(C)COP(=O)(O)OP(=O)(O)OC[C@H]1O[C@@H](n2cnc3c(N)ncnc32)[C@H](O)[C@@H]1OP(=O)(O)O [decanoyl-CoA] | – | competitive inhibitor of hTHEM4-catalyzed decanoyl-CoA hydrolysis
